pIC50: −log10 of the molar value.
Legend:
[1] = test system: HIV-1 latency establishment (HIVGKO reporter virus) in K562 cells; experiment: HIVGKO dual-color reporter latency establishment in K562 cells (FACS); assay type: cell-based
Source text: While the effect of FOXO1 inhibitor treatment on productive infection has been tested (Trinite, B. et al. PLoS One 9, (2014)), its effect on latent HIV previously remained unknown. To test the potential of FOXO1 inhibition to affect HIV-1 latency, the new second-generation dual-color reporter virus HIVGKO (LTR-HIV-Δ-env-nefATG-csGFP-EF1α-mKO2) and the FOXO1 inhibitor AS1842856 were employed (FIG. 1, Panel A). In this system, latently-infected K562 cells express the mKO2 fluorophore, while cells containing a productive and active virus express both mKO2 and GFP fluorophores, the latter controlled by the HIV-1 LTR. […] Concomitantly, the proportion of actively infected cells increased. […] Thus, FOXO1 inhibition prevented HIV-1 latency establishment and increased the ratio between actively and latently infected cells.
Briefly, K562 cells were treated with increasing concentrations of the FOXO1 inhibitor AS1842856 just after HIVGKO infection. After 3-4 days, the percentage of latent cells and productive cells were quantified by FACS. In left panel, amount of productive or latent cells relative to the total infection rate (bars) and cell viability (dots). In the right panel, ratios of productive versus latent populations upon increasing concentrations of AS1842856 treatments. Data are represented as mean f SD of triplicate values, representative of three independent experiments. […]

FOXO3 = molecular target: T1, FOXO3 (Homo sapiens, UniProt O43524); experiment: Cellular Thermal Shift Assay (CETSA) in K562 cells, FOXO3; assay type: binding; conditions: 1 μM
T1 construct: performed against the FOXO isoforms expressed in K562 cells; endogenous in cells; host or cells: K562
T1 sequence (O43524 whole entry, canonical isoform): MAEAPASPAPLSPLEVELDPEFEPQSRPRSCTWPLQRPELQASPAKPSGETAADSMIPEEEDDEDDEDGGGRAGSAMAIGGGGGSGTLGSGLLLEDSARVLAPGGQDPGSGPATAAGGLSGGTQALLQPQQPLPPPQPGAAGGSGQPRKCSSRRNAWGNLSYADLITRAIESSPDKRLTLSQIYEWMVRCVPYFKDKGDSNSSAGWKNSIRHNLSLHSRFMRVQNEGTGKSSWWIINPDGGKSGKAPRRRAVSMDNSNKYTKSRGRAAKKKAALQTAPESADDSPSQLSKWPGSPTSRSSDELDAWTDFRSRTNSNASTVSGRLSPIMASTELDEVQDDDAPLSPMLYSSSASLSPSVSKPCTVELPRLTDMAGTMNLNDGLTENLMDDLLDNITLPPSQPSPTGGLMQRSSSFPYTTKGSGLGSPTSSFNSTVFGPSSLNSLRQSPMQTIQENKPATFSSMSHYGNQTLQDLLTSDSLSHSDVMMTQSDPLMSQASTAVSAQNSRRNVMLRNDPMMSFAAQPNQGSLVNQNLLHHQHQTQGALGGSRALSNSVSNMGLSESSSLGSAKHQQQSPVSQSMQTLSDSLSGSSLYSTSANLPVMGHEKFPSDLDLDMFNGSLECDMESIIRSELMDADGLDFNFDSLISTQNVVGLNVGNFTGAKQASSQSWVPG
Description: K562 cells (ATCC) were maintained in appropriate volume of RPMI medium supplemented with 10% fetal bovine serum (Serum Plus—II, Sigma MO, USA), 100 units/mL penicillin and 100 […] (Corning, VA, USA). Short-term passages (<15) were used for all experiments. For CETSA, K562 cell were freshly seeded the day before the experiment. The day of experiment, equal numbers of cells were counted by Moxi Mini automated cell counter (Orflo) and 0.6×10^6 cells per data point were seeded in T-25 cell culture flasks (VWR, PA, USA) in appropriate volume of culture medium. Cells were exposed to […] AS1842856 or equal volume DMSO for 3 hours in an incubator with 5% CO2 and 37° C. […] The supernatants were transferred to new microcentrifuge tubes and analyzed by SDS-PAGE followed by immunoblotting analysis. […] Immunoblotting results were subjected to densitometric analysis (Image J) and melting temperatures of FOXO1, FOXO3 and FOXO4 were determined by Prism 7 (GraphPad) using nonlinear least-squares regression fit to Y=100/(1+10^(Log IC50−X)*H), where H=Hill slope (variable). The viability of the cells was assessed in triplicate by trypan blue exclusion. […]
Briefly, K562 cells were treated with increasing concentrations of the FOXO1 inhibitor AS1842856 just after HIVGKO infection. After 3-4 days, the percentage of latent cells and productive cells were quantified by FACS. […]

K562 cells = experiment: Cell viability of HIVGKO-infected K562 cells; assay type: cell-based; conditions: K562, increasing concentrations
Description: Briefly, K562 cells were treated with increasing concentrations of the FOXO1 inhibitor AS1842856 just after HIVGKO infection. After 3-4 days, the percentage of latent cells and productive cells were quantified by FACS. In left panel, amount of productive or latent cells relative to the total infection rate (bars) and cell viability (dots). In the right panel, ratios of productive versus latent populations upon increasing concentrations of AS1842856 treatments. Data are represented as mean f SD of triplicate values, representative of three independent experiments. FIG. 1, Panel B depicts FOXO1, FOXO3 and FOXO4 CETSA-melting curve shifts upon the presence or absence of AS1842856 1000 nM in K562 cells. Band intensities obtained from western blot analysis were related to the highest western blot signal which has been set to 100%. Relative FOXO-band intensities were plotted against corresponding incubation temperatures and a nonlinear least-squares regression fit was applied. Data represent the mean±SD of three individual experiments. FIG. 1, Panel C depicts the efficiency of FOXO1, FOXO3 and FOXO4 knockdowns with two different sgRNAs checked by western blot. Cells transduced with NC (negative control) sgRNA lentiviruses were used as a control. […]

CCn1cc(C(=O)O)c(=O)c2c(N)c(F)c(NC3CCCCC3)cc21 [AS1842856, 5-amino-7-(cyclohexylamino)-1-ethyl-6-fluoro-4-oxo-1,4-dihydro-quinoline-3-carboxylic acid]
pIC50 ([1]; Human immunodeficiency virus 1, K562, read-out: IC50 observed in the cell culture system): 7.22
proportion of latently infected cells ([1]; K562, increasing concentrations): decreased
change in FOXO3 melting curve (FOXO3): no changes
viability (K562 cells): no significant changes
